Assay results taken from patent US5212286A, “Atrial Natriuretic/vasodilator peptide compounds” (Scios Nova Inc., priority 1986, dated 1993).
Positions of bridges follow the written chain, without caps; N, C: chain ends. Residues, ends and D or L forms follow the SMILES beside them. No end group written: not given here.

Columns and labels:
[1] = system: ANVP receptor sites on cultured bovine vascular smooth muscle cells; test: Displacement of specific [125I]rANVP(126-150) binding on cultured smooth muscle cells; details: for Ki: concentration of half-maximal displacement
From the text: Specific and saturable binding is a necessary component of a hormone/receptor interaction.
Various concentrations of the peptides described were examined for […]

[2] = system: rabbit thoracic aortic rings; test: Relaxation of histamine-contracted rabbit thoracic aortic rings; details: tested as described for the expressed material
Method: (§1) Synthetic ANVP compounds were compared to partially purified (gel filtration step) and purified (HPLC) native ANVP compounds (See FIGS. 3A-D) for their ability to relax histamine-contracted aortic rings. Rings were suspended in 10 ml aerated Kreb's buffer under 1.5 gm passive tension. Rings were precontracted with 5 X 10^-6 M histamine, washed and allowed to return to baseline tension, as described (Kleinert, H. D., supra). Increasing amounts of purified or synthetic ANVP compounds were then added in cumulative fashion.
The dried methanol soluble and ammonium acetate eluted material was resolubilized in 0.5 ml of distilled H2 O and tested for biological activity using the precontracted rabbit thoracic aortic ring model described in Kleinert, et al., Hypertension 6:Suppl. 1:143-146 (1984). Equal volumes of material reconstituted from crude lyophilized media, methanol soluble protein or protein eluted from SP-Sephadex® with 1.0 M ammonium acetate were compared using aortic rings precontracted with 5 μM histamine. Material synthesized by yeast cultures whose plasmids encoded proANVP (amino acids 26-152) (YEp-α-NF-9) and proANVP (amino acids 121-152) (YEp-α-NF-5), as well as the corresponding inverse orientations (YEp-α-NF-12 and YEp-α-NF-7, respectively), were compared.
A fraction of the crude bacteria extract was subsequently boiled for 5 minutes and lowered to pH 2.5 for 1 hour. […]

[3] = system: precontracted rabbit or rat aortic preparations; test: Vasorelaxant potency on precontracted aortic rings; details: for vasorelaxant potency in words: precontracted vascular preparations; for IC50: thoracic aortic segments precontracted with histamine or norepinephrine, read-out: IC50 (concentration producing half-maximal relaxation of the precontracted tissue)
Method: as §1, with “([…].,” for “(Kleinert, H. D.,”, “fashion. […] The relaxation effects of various ANVP compounds on precontracted rabbit or rat aortic preparations are shown in Table III. | Thoracic aortic segments were precontracted with histamine or | norepinephrine as previously described. Various doses of ANVP compounds | were then added and relaxation of the precontracted state was monitored. | Data are expressed as the concentration of each peptide required to | produce a halfmaximal relaxation of the precontracted tissue (IC50).” for “fashion.”

experimental animals = test: Diuretic activity following infusion into experimental animals (FIG. 12B); type: in vivo; details: urinary flow rate as percentage of baseline
From the text: FIG. 12 graphically portrays a comparison of the activities of selected compounds of the present invention, in which Panel A depicts a dose response relationship comparing the vasorelaxant properties of rANVP […] and [Ala^130 ]rANVP(126-150) and Panel B portrays a comparison of the diuretic activities of the same two peptides following infusion into experimental animals. Urinary flow rates during and post infusion (periods 7-24) were compared to control (baseline) flow rates (periods 1-6) and data are expressed as the percentage of baseline control values;
In table VII, various ANVP compounds were tested over a ten-fold range of concentration. Most of the peptides induced diuresis and natriuresis with few exceptions ([D-Asp^135 ]rANVP(126-150), [D-Val^137 ] rANVP(126-150)]). […] This is perhaps best observed with the ANVP analog [Ala^130 ]rANVP(126-150). […] Thus, it appears that [Ala^130 ]rANVP(126-150), rANVP(126-147) and related peptide forms represent classes of compounds which may exert renal selectivity. Such compounds could have important therapeutic value.

isolated rat kidney = test: Renal function in the isolated perfused rat kidney; details: dose 0.1 μg; experimental period E; mean of 3-8 experiments
intact rats = test: Natriuretic and diuretic effects in intact rats (bolus injection); type: in vivo, rat; details: dose 3670 pmol/kg
Method: Synthetic ANVP compounds […] hANVP(127-151) were also found to be natriuretic in the intact rat. These compounds were administered as a bolus injection to Inactin anesthetized rats (100 mg/kg, average weight 399 g) which were maintained on a constant infusion of normal saline at 2.2 ml/hr. […] Data are expressed as mean±SE.

CC[C@H](C)[C@@H]1NC(=O)[C@H](CCCNC(=N)N)NC(=O)[C@H](CC(=O)O)NC(=O)[C@H](CCSC)NC(=O)[C@H](CCCNC(=N)N)NC(=O)CNC(=O)CNC(=O)[C@H](Cc2ccccc2)NC(=O)[C@@H](NC(=O)[C@H](CO)NC(=O)[C@@H](N)CO)CSSC[C@@H](C(=O)N[C@@H](CC(N)=O)C(=O)N[C@@H](CO)C(=O)N[C@@H](Cc2ccccc2)C(=O)N[C@@H](CCCNC(=N)N)C(=O)N[C@@H](Cc2ccc(O)cc2)C(=O)O)NC(=O)CNC(=O)[C@H](CC(C)C)NC(=O)CNC(=O)[C@H](CO)NC(=O)[C@H](CCC(N)=O)NC(=O)[C@H](C)NC(=O)CNC1=O [hANVP(128-151)] (H-SSCFGGRMDRIGAQSGLGCNSFRY-OH; disulfide 3-19)
Ki ([1]; Series A smooth muscle cells): 7 nM
biological (vasodilatory) activity of expression products, in words [2]: displayed the full range of biological activities

CC[C@H](C)[C@@H]1NC(=O)[C@H](CCCNC(=N)N)NC(=O)[C@H](CC(=O)O)NC(=O)[C@H]([C@@H](C)CC)NC(=O)[C@H](CCCNC(=N)N)NC(=O)CNC(=O)CNC(=O)[C@H](C)NC(=O)[C@@H](NC(=O)[C@H](CO)NC(=O)[C@H](CO)NC(=O)[C@@H](N)CCCNC(=N)N)CSSC[C@@H](C(=O)N[C@@H](CC(N)=O)C(=O)N[C@@H](CO)C(=O)N[C@@H](Cc2ccccc2)C(=O)N[C@@H](CCCNC(=N)N)C(=O)N[C@@H](Cc2ccc(O)cc2)C(=O)O)NC(=O)CNC(=O)[C@H](CC(C)C)NC(=O)CNC(=O)[C@H](CO)NC(=O)[C@H](CCC(N)=O)NC(=O)[C@H](C)NC(=O)CNC1=O [[Ala^130]rANVP(126-150)]
vasorelaxant potency in words [3]: substantially less potent than rANVP(126-150)
vasorelaxant potency in words ([3]; listed as [Ala^130 ] rANVP): essentially inactive
IC50 [3]: > 100 nM
diuretic effects in vivo compared with rANVP(126-150) (FIG. 12b) (experimental animals): nearly equipotent
binding activity in smooth muscle cells relative to rANVP(126-150), in words [1]: comparable binding activity to rANVP(126-150)
Ki ([1]; Series B smooth muscle cells): 11.1 nM

CC[C@H](C)[C@@H]1NC(=O)[C@H](CCCNC(=N)N)NC(=O)[C@H](CC(=O)O)NC(=O)[C@H]([C@@H](C)CC)NC(=O)[C@H](CCCNC(=N)N)NC(=O)CNC(=O)CNC(=O)[C@H](Cc2ccccc2)NC(=O)[C@@H](NC(=O)[C@H](CO)NC(=O)[C@H](CO)NC(=O)[C@@H](N)CCCNC(=N)N)CSSC[C@@H](C(=O)N[C@@H](CC(N)=O)C(=O)N[C@@H](CO)C(=O)N[C@@H](Cc2ccccc2)C(=O)N[C@@H](CCCNC(=N)N)C(=O)N[C@@H](Cc2ccc(O)cc2)C(=O)O)NC(=O)CNC(=O)[C@H](CC(C)C)NC(=O)[C@@H](C)NC(=O)[C@H](CO)NC(=O)[C@H](CCC(N)=O)NC(=O)[C@H](C)NC(=O)CNC1=O [[D-Ala^142]rANVP(126-150), H-Arg-Ser-Ser-Cys-Phe-Gly-Gly-Arg-Ile-Asp-Arg-Ile-Gly-Ala-gln-Ser-[D-Ala]-Leu-Gly-Cys-Asn-Ser-Phe-Arg-Tyr-OH]
vasorelaxant potency in words [3]: most potent
IC50 [3]: 0.62 nM
.V (urine flow rate) (isolated rat kidney): 58.5 µL/min
GFR (isolated rat kidney): 0.75 mL/min
UNa.V (urinary sodium excretion rate) (isolated rat kidney): 2.50 μEq/min
Peak Na+ Excr. (intact rats): 9.1 ± 0.9 µmol/min
Peak Urine Vol. (intact rats): 66.3 ± 3 µL/min
Ki ([1]; Series A smooth muscle cells): 0.6 nM

hANVP(126-151): human product produced in CHO cells, as printed; probably prohANVP(26-151) (RRSSCFGGRMDRIGAQSGLGCNSFRY; ends and bridges not checked; cysteine pairing not given here; UniProt P01160 126-151, looked up, fragment)
biological (vasodilatory) activity of expression products, in words [2]: exhibited biological activity similar to that observed above
